The structures appear in SMILES notation.

In experiment [1] the test system is crop plants (cereal). As to the kind of experiment: Container trials with cereal in the greenhouse, mefenpyr 1 day prior to herbicide application (Example B, use of safeners). In kind it is in vivo. Particulars: without safener. Here is the method:
Seeds of monocotyledonous and dicotyledonous weed and crop plants are placed into sandy loam in wood fiber pots or in plastic pots, covered with soil and cultivated in a greenhouse, during the vegetation period also outdoors outside of the greenhouse, under good growth conditions. 2 to 3 weeks after sowing, the test plants are treated at the one- to three-leaf stage. The test compounds, formulated as wettable powders (WP) or liquid (EC), are, in various dosages at a water application rate of 300 l/ha (converted), with wetting agent (0.2 to 0.3%) added, sprayed onto the plants and the surface of the soil. […]
If it is additionally to be tested as to whether safeners can improve the plant compatibility of test substances in the case of crop plants, the following options are used for applying the safener: • seeds of the crop plants are, before sowing, dressed with the safener substance (the amount of safener stated in percent, based on the weight of the seed) • before the application of the test substances, the crop plants are sprayed with the safener at a certain application rate per hectare (usually 1 day before the application of the test substances) • the safener is applied together with the test substance as a tank mix (the amount of safener is stated in g/ha or as a ratio, based on the herbicide). • By comparing the effect of test substances on crop plants without or with safener treatment, it is possible to assess the effect of the safener substance.
Container Trials with Cereal in the Greenhouse
Mefenpyr 1 Day Prior to Herbicide Application

Experiment [2] concerns monocotyledonous and dicotyledonous weed and crop plants. Briefly: Herbicidal post-emergence action (Example B), also comparison with known compounds. In kind it is in vivo. Also on record: key: % herbicidal effect: 0 = like control, 100 = plants died. The procedure: Seeds of monocotyledonous and dicotyledonous weed and crop plants are placed into sandy loam in wood fiber pots or in plastic pots, covered with soil and cultivated in a greenhouse, during the vegetation period also outdoors outside of the greenhouse, under good growth conditions. 2 to 3 weeks after sowing, the test plants are treated at the one- to three-leaf stage. The test compounds, formulated as wettable powders (WP) or liquid (EC), are, in various dosages at a water application rate of 300 l/ha (converted), with wetting agent (0.2 to 0.3%) added, sprayed onto the plants and the surface of the soil. 3 to 4 weeks after the treatment of the test plants, the effect of the preparations is rated visually in comparison to untreated controls (herbicidal effect in percent (%): 100% effect=the plants have died, 0% effect=like control plants).

[3] abbreviates: 10 days after application, 50 g of a.i./ha.
The mark [4] stands for this setting: 10 days after application, 100 g of a.i./ha.
[5] abbreviates: 10 days after application, 200 g of a.i./ha.
The mark [6] stands for this setting: 28 days after application, 50 g of a.i./ha.
Setting [7] is: 28 days after application, 100 g of a.i./ha.
Where [8] appears, read: 28 days after application, 25 g of a.i./ha.

Take `CCc1cc(C)cc(CC)c1C1=C(OC(=O)C(C)(C)C)[C@H]2CCCC[C@H]2C1=O` (relative stereo) [I-b-24]: the “Summer wheat observed (%)” value came out at 30% in experiment [1] (10 days after application, 25 g of a.i./ha); 60% in experiment [1] (setting [3]); 65% in experiment [1] (setting [4]); 70% in experiment [1] (setting [5]). Moreover, the “Summer barley observed (%)” value in experiment [1] (setting [3]) is listed as 20%; in experiment [1] (setting [4]) it was 50%; in experiment [1] (setting [5]) it was 60%. Also, the results for the ALOMY in experiment [2] (100 g/ha) and in experiment [2] (200 g/ha) were 80 and 90, respectively. In addition, the AVEFA is on record as 90 in experiment [2] (100 g/ha) and 95 in experiment [2] (200 g/ha). Also, the LOLMU in experiment [2] (100 g/ha) is 95; in experiment [2] (200 g/ha), 98.

For `CCc1cc(C)cc(CC)c1C1=C(OC(=O)C(C)(C)C)[C@H]2CCCC[C@@H]2C1=O` (relative stereo) [I-b-26], in experiment [1] (setting [6]), the “Summer barley observed (%)” value was 20% and the “Summer wheat observed (%)” value stood at 15%. For the same compound, in experiment [1] (setting [7]), the “Summer barley observed (%)” value is on record as 80% and the “Summer wheat observed (%)” value amounted to 70%. In experiment [2] (100 g/ha), this compound gave an ALOMY of 95, an AVEFA of 98 and an LOLMU of 70. In experiment [2] (200 g/ha), this compound had an ALOMY of 97, an AVEFA of 98 and an LOLMU of 100.

On to `CCc1cc(C)cc(CC)c1C1=C(O)C2CCCCC2C1=O` (stereo not shown) [I-a-9], for which the results for the “Summer barley observed (%)” value in experiment [1] (setting [8]) and in experiment [1] (setting [6]) were 20% and 50%, respectively. Moreover, the “Summer wheat observed (%)” value in experiment [1] (setting [8]) was found to be 5%; in experiment [1] (setting [6]), 60%; in experiment [1] (setting [7]) it was 60%. For the same compound, the ALOMY in experiment [2] (100 g/ha) and in experiment [2] (200 g/ha) was 98 each time. Moreover, the AVEFA in experiment [2] (100 g/ha) and in experiment [2] (200 g/ha) was 100 each time. Moreover, the LOLMU in experiment [2] (100 g/ha) and in experiment [2] (200 g/ha) was 99 each time.

These data come from patent US8168832B2, “2,4,6-trialkylphenyl substituted cyclopentane-1,3-dione” (Bayer Cropscience AG, priority 2006, dated 2012).
